Test results: paper PMC10854695, “Using Flavonoid Substitution Status to Predict Anticancer Effects in Human Melanoma Cancers: An In Vitro Study” (Cancers, 2024)
Like-named read-outs stand apart in the source and are kept apart here.

Assays:
A375 melanoma cells [1] = assay: MTT cell viability assay, A375;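 note: Read-out is formazan absorbance at 570 nm after 2 h with MTT, with compounds in at most 0.1% v/v DMSO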
[2] = Neutral red uptake (NRU) assay, normal cells; details: human, human skin fibroblasts (CCD25Sk)
Protocol: (§1) The NRU (neutral red uptake) was conducted as previously described by Szoka and co-workers, with some modifications [22]. Briefly, melanoma cells and fibroblasts were seeded in microplates at the density of 1 × 10^4 cells per well and allowed to adhere for 24 h. […] After treatment, the culture medium was replaced with a neutral red solution (40 µg/mL). An additional 2 h of incubation was performed. The neutral red solution was then removed and the neutral red accumulated in the cells was dissolved in 50% EtOH with 1% of the glacial acetic acid. The absorbance was estimated at 540 nm and IC50 values were calculated using GraphPad Prism software (GraphPad Software, San Diego, CA, USA).

C32 melanoma cells [3] = assay: MTT cell viability assay, C32; details: read-out: IC50, cytotoxic activity, MTT test;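 note: MTT added for 2 h, cells lysed in DMSO, absorbance read at 570 nm, compound vehicle kept at or below 0.1% DMSO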
A375 melanoma cells [4] = assay: Apoptosis assay, annexin V/PI flow cytometry, A375; assay type: cell-based, human; details: A375, 25 µM, 48 h
Protocol: Firstly, cells were placed in 6-well plates at a density of 1 × 10^5 cells per well and allowed to adhere for 24 h. Then, cells were treated with 25 µM, 50 µM, and 100 μM of the selected flavonoids (1, 6, 15, 16, 17, 37) and incubated for 48 h. Floating and adherent cells were collected and assayed using the manufacturer’s protocol supported by the Dead Cell Apoptosis Kit for flow cytometry. Concisely, 100 μL of an annexin-binding buffer containing a 5 μL annexin V-FITC conjugate solution and 1 μg/mL PI (propidium iodide) was used to disperse the cells. After 15 min of incubation, an additional 400 μL of the mentioned buffer was added. The cells were analyzed with a DxFLEX flow cytometer (Beckman Coulter, Brea, CA, USA).

A375 melanoma cells [5] = assay: [3H]-thymidine incorporation (DNA biosynthesis), A375; assay type: cell-based, human; details: read-out: IC50, effect on DNA biosynthesis ([3H]-thymidine incorporation)
Protocol: (§2) The inhibition of DNA biosynthesis was evaluated using [^3H]-thymidine incorporation into the DNA of melanoma cells (C32, A375) and fibroblasts treated with the studied compounds [21]. The cells were briefly seeded in 24-well plates (1 × 10^5 cells per well) and allowed to adhere for 24 h. […] After incubation for 24, 48, and 72 h, the cells were rinsed three times with PBS. Then, cells were lysed in 1 mL of 0.1 M NaOH containing 1% SDS. The cell lysate was moved into scintillation vials containing scintillation liquid, and the radioactivity of the samples was measured using a liquid scintillation analyzer (Perkin-Elmer, Waltham, MA, USA).

[6] = tested on: cleaved caspase-3 and cleaved caspase-7 in C32 cells; assay: Immunofluorescence of cleaved caspase-3/-7, C32; assay type: cell-based, human; details: C32, 48 h, immunofluorescent staining
[7] = MTT cell viability assay, normal cells; details: human, human skin fibroblasts (CCD25Sk);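 note: fibroblasts served as non-cancer comparison line for selectivity versus melanoma cells, MTT reduction read as absorbance at 570 nm after 2 h dye exposure, compounds in ≤0.1% DMSO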
Protocol: (§3) The MTT colorimetric assay was performed as a preliminary evaluation of the cytotoxicity of the selected flavonoids according to the method described and validated by Strawa et al. [21]. Briefly, melanoma cells and fibroblasts were seeded in 96-well microplates at a density of 1 × 10^4 cells per well. Fibroblasts were used as a control cell line in order to assess the selectivity of the compounds. […] Subsequently, the cells were washed with PBS, incubated with MTT solution for 2 h, and lysed with dimethyl sulfoxide (DMSO) supplemented with 1% (v/v) Sorensen’s glycine buffer. The absorbance was measured using a microplate reader (EPOCH 2, BioTek, Winooski, VT, USA) at a wavelength of 570 nm. The compounds were used at a final DMSO concentration of no more than 0.1% (v/v) in each well. The results were generated from at least three independent experiments. […] The IC50 values were calculated with GraphPad Prism 9 software (GraphPad Software, San Diego, CA, USA).

C32 melanoma cells [8] = assay: [3H]-thymidine incorporation (DNA biosynthesis), C32; assay type: cell-based, human; details: Homo sapiens, read-out: IC50, effect on DNA biosynthesis ([3H]-thymidine incorporation)
Protocol: as §2

[9] = tested on: human skin fibroblasts (CCD25Sk); assay: [3H]-thymidine incorporation (DNA biosynthesis), normal cells; assay type: cell-based; details: Homo sapiens, Skin fibroblast, read-out: IC50, effect on DNA biosynthesis ([3H]-thymidine incorporation)
Protocol: as §2

[10] = tested on: cleaved caspase-3 and cleaved caspase-7 in A375 cells; assay: Immunofluorescence of cleaved caspase-3/-7, A375; assay type: cell-based, human; details: A375, 48 h, immunofluorescent staining
Protocol: Firstly, to examine fluorescent signals, cells were placed in the bottom of 96-well black plates at 1 × 10^4 cells per well and permitted to adhere for 24 h. […] After incubating and removing the medium, cells were fixed in 4% paraformaldehyde for 15 min. Later, cells were rinsed three times with PBS and permeabilized with 0.1% Triton X-100 for 5 min at room temperature. The 10% heat-inactivated goat serum in the PBS was used to block non-specific binding. Subsequently, cells were treated with the following antibodies overnight: anti-cleaved caspase 3 and anti-cleaved caspase-7. […] Cell nuclei were stained with Hoechst 33342 and F-actin was stained with Phalloidin-Atto 488. Fluorescent signals were captured using a BD Pathway 855 confocal microscope (Becton Dickinson, Franklin Lakes, NJ, USA). The mean fluorescence intensity was calculated using ImageJ software (National Institutes of Health, Bethesda, Rockville, MD, USA).

[11] = tested on: caspases, PARP, phospho-RSK in A375 cells; assay: Western immunoblot of apoptosis mediators and RSK, A375; assay type: cell-based, human; details: A375, 48 h, Western blot
A375 melanoma cells [12] = assay: Neutral red uptake (NRU) assay, A375; details: read-out: IC50, cytotoxic activity, NRU assay
[13] = tested on: caspases, PARP, phospho-RSK in C32 cells; assay: Western immunoblot of apoptosis mediators and RSK, C32; assay type: cell-based, human; details: C32, 48 h, Western blot
Protocol: Floating cells were harvested by centrifugation of the conditioned media (300× g, 5 min). Cell pellet and adherent cells were lysed in a cell lysis buffer supplemented with inhibitors of proteases and phosphatases. The cell lysate was sonicated (2 × 10 s) on ice with an ultrasonic homogenizer (UP200S, Hielscher Ultrasonics GmbH, Teltow, Germany) and centrifuged for 10 min at 10,000× g. The supernatant was collected and stored in a freezer at −70 °C. Protein concentrations in the cell supernatants were determined using a Lowry assay. Obtained proteins were dissolved on SDS-PAGE gels (7.5%, 10%, or 12%) using the Mini-Protean Tetra system. The proteins were transferred to nitrocellulose membranes using the Mini Trans-Blot Cell wet blotting system. The 5% skim milk was used to block membranes. Then, membranes were probed for 24 h at 4 °C with the following antibodies: anti-phospho-RSK, anti-RSK, anti-PARP, anti-cleaved PARP, anti-caspase-8, anti-caspase-9, anti-caspase-7, anti-caspase-3, and anti-actin. Membranes were incubated with an ECL-HRP (enhanced chemiluminescence-horseradish peroxidase) substrate, and the signal was spotted using the BioSpectrum Imaging System and VisionWorks LS software 7.0 (Ultra-Violet Products, Ltd., San Gabriel, CA, USA). The intensity of the bands was quantified by densitometric analysis using UVIBand software, version 15.08d (Uvitec Ltd., Cambridge, UK).

C32 melanoma cells [14] = assay: Neutral red uptake (NRU) assay, C32
[15] = tested on: human skin fibroblasts (CCD25Sk)
Protocol: as §1

C32 melanoma cells [16] = tested on: C32 melanoma cells
C32 melanoma cells [17] = tested on: C32 melanoma cells; remark: listed apart in the source
[18] = tested on: human skin fibroblasts (CCD25Sk); remark: listed apart in the source
Protocol: as §3

A375 melanoma cells [19] = tested on: A375 melanoma cells
A375 melanoma cells [20] = tested on: A375 melanoma cells; remark: listed apart in the source
[21] = tested on: human skin fibroblasts (CCD25Sk); assay: Neutral red uptake (NRU) assay, normal cells; details: read-out: IC50, cytotoxic activity, NRU assay, Normal cells (fibroblasts)
Protocol: as §1

[22] = tested on: human skin fibroblasts (CCD25Sk); assay: MTT cell viability assay, normal cells; details: read-out: IC50, cytotoxic activity, MTT test, Normal cells (fibroblasts);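 note: fibroblasts served as non-cancer comparison line for selectivity versus melanoma cells, MTT reduction read as absorbance at 570 nm after 2 h dye exposure, compounds in ≤0.1% DMSO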
Protocol: as §3

[23] = read-out: IC50, cytotoxic activity, MTT test, A375, 48 h
[24] = read-out: IC50, cytotoxic activity, NRU assay, C32, 24 h
[25] = read-out: IC50, cytotoxic activity, NRU assay, C32, 48 h
[26] = read-out: IC50, cytotoxic activity, NRU assay, C32, 72 h

In the case of `O=c1cc(-c2ccc(O)c(O)c2)oc2cc(O)cc(O)c12` [Compound 6, luteolin], the IC50 (A375 melanoma cells [1]; Homo sapiens, A-375, 24 h, read-out: IC50, cytotoxic activity, MTT test, A375, 24 h) is reported as > 200 µM, the IC50 (A375 melanoma cells [1]; Homo sapiens, A-375, 48 h, read-out: IC50, cytotoxic activity, MTT test, A375, 48 h) is reported as 38.2 µM and the IC50 (A375 melanoma cells [1]; Homo sapiens, A-375, 72 h, read-out: IC50, cytotoxic activity, MTT test, A375, 72 h) is reported as 24.6 ± 1.6 µM. The IC50 (A375 melanoma cells [1]; [23]) was 38.2 ± 4.1 µM, the IC50 at 24 h [2] was > 200 µM and the IC50 at 48 h [2] was 45.2 ± 2.6 µM. For the same molecule, the IC50 at 72 h [2] was 21.4 ± 1.7 µM, the IC50 (C32 melanoma cells [3]; Homo sapiens, C32, 24 h) was > 200 µM and the IC50 (C32 melanoma cells [3]; Homo sapiens, C32, 48 h) was 42.1 ± 3.5 µM. For the same molecule, the IC50 (C32 melanoma cells [3]; Homo sapiens, C32, 72 h) was 13.1 ± 1.3 µM, the “level of early apoptotic cells” value (A375 melanoma cells [4]) was 63.6 ± 6.1% and the “level of late apoptotic cells” value (A375 melanoma cells [4]) was 13.0 ± 1.8%. The IC50 (A375 melanoma cells [5]; A375, 48 h) was 38.5 ± 2.9 µM, the IC50 (A375 melanoma cells [5]; Homo sapiens, A-375, A375, 24 h) was > 200 µM and the IC50 (A375 melanoma cells [5]; Homo sapiens, A-375, A375, 48 h) was 38.6 ± 0.91 µM. The IC50 (A375 melanoma cells [5]; Homo sapiens, A-375, A375, 72 h) was 30.9 ± 1.8 µM, the caspase-3 expression [6] was “notably extended” and the “level of the cleaved caspase-7” value [6] was “slightly increased”. The IC50 at 24 h [7] was > 200 µM, the IC50 at 48 h [7] was 69.7 ± 5.2 µM and the IC50 at 72 h [7] was 20.1 ± 1.4 µM. The IC50 (C32 melanoma cells [8]; C32, C32, 24 h) was > 200 µM, the IC50 (C32 melanoma cells [8]; C32, C32, 48 h) was 30.9 ± 2.2 µM and the IC50 (C32 melanoma cells [8]; C32, C32, 72 h) was 24.5 ± 1.81 µM. For the same molecule, the IC50 ([9]; 24 h) was > 200 µM, the IC50 ([9]; 48 h) was > 200 µM and the IC50 ([9]; 72 h) was > 200 µM. For the same molecule, the “level of cleaved caspase-3” value [10] was “slightly increased”, the “cleavage of initiator caspases, caspase-9 and caspase-8” value [11] was “cleavage of both initiator caspases” and the “levels of the caspases-3 and -7 zymogens” value [11] was “decreased levels”. The IC50 (A375 melanoma cells [12]; Homo sapiens, A-375, 24 h) was 58.1 ± 4.2 µM, the IC50 (A375 melanoma cells [12]; Homo sapiens, A-375, 48 h) was 25.7 µM and the IC50 (A375 melanoma cells [12]; Homo sapiens, A-375, 72 h) was 23.9 ± 0.23 µM. The “cleaved PARP and caspase-9” value [13] was “generated cleaved PARP and caspase-9”, the IC50 (C32 melanoma cells [14]; Homo sapiens, C32, 24 h, read-out: IC50, cytotoxic activity, NRU assay, C32, 24 h) was 41.3 ± 3.8 µM and the IC50 (C32 melanoma cells [14]; Homo sapiens, C32, 48 h, read-out: IC50, cytotoxic activity, NRU assay, C32, 48 h) was 13.1 µM. The IC50 (C32 melanoma cells [14]; Homo sapiens, C32, 72 h, read-out: IC50, cytotoxic activity, NRU assay, C32, 72 h) was 12.6 ± 1.2 µM.

In the case of `O=c1cc(-c2ccc(O)c(O)c2)oc2cc(OC3OC(CO)C(O)C(O)C3OC3OCC(O)C(O)C3O)cc(O)c12` (stereo not shown) [Compound 9, luteolin 7-O-sambubioside], the IC50 [15] is reported as > 200 µM, the IC50 (C32 melanoma cells [16]) is reported as > 200 µM and the IC50 (C32 melanoma cells [17]) is reported as > 200 µM. The IC50 [18] was > 200 µM, the IC50 (A375 melanoma cells [19]) was > 200 µM and the IC50 (A375 melanoma cells [20]) was > 200 µM.

For `CC(=O)Oc1ccc(-c2cc(=O)c3c(O)cc(O)c([C@@H]4OC[C@@H](O)[C@H](O)[C@H]4O[C@@H]4O[C@H](CO)[C@@H](O)[C@H](O)[C@H]4O)c3o2)cc1O` [Compound 10, 5,7,3′-trihydroxy-4′-acetoxy-flavone-8-C-xyloside-2″-O-glucoside], the IC50 ([21]; 24 h) was > 200 µM, the IC50 ([21]; 48 h) was > 200 µM and the IC50 ([21]; 72 h) was > 200 µM. The IC50 (C32 melanoma cells [17]) was > 200 µM, the IC50 [18] was > 200 µM and the IC50 (A375 melanoma cells [19]) was > 200 µM. For the same molecule, the IC50 (A375 melanoma cells [12]; A375, 24 h) was > 200 µM, the IC50 (A375 melanoma cells [12]; A375, 48 h) was > 200 µM and the IC50 (A375 melanoma cells [12]; A375, 72 h) was > 200 µM. The IC50 (C32 melanoma cells [14]; [24]) was > 200 µM, the IC50 (C32 melanoma cells [14]; [25]) was > 200 µM and the IC50 (C32 melanoma cells [14]; [26]) was > 200 µM.

For `COc1ccc(-c2cc(=O)c3c(O)cc(O)c([C@@H]4OC[C@@H](O)[C@H](O)[C@H]4O[C@@H]4O[C@H](CO)[C@@H](O)[C@H](O)[C@H]4O)c3o2)cc1O` [Compound 11, 5,7,3′-trihydroxy-4′-methoxyflavone-8-C-xyloside-2″-O-glucoside], the IC50 ([21]; 24 h) was > 200 µM, the IC50 ([21]; 48 h) was > 200 µM and the IC50 ([21]; 72 h) was > 200 µM. The IC50 (C32 melanoma cells [17]) was > 200 µM, the IC50 [18] was > 200 µM and the IC50 (A375 melanoma cells [19]) was > 200 µM. The IC50 (A375 melanoma cells [12]; A375, 24 h) was > 200 µM, the IC50 (A375 melanoma cells [12]; A375, 48 h) was > 200 µM and the IC50 (A375 melanoma cells [12]; A375, 72 h) was > 200 µM. For the same molecule, the IC50 (C32 melanoma cells [14]; [24]) was > 200 µM, the IC50 (C32 melanoma cells [14]; [25]) was > 200 µM and the IC50 (C32 melanoma cells [14]; [26]) was > 200 µM.

For `COc1cc(-c2cc(=O)c3c(O)cc(O)c([C@@H]4OC[C@@H](O)[C@H](O)[C@H]4O[C@@H]4O[C@H](CO)[C@@H](OC(C)=O)[C@H](O)[C@H]4O)c3o2)ccc1OC(C)=O` [Compound 12, 5,7-dihydroxy-3′-methoxy-4′-acetoxyflavone-8-C-xyloside-2″-O-(4‴-acetoxy)-glucoside], the IC50 [15] was > 200 µM, the IC50 (C32 melanoma cells [16]) was > 200 µM and the IC50 (C32 melanoma cells [17]) was > 200 µM. The IC50 [18] was > 200 µM, the IC50 (A375 melanoma cells [19]) was > 200 µM and the IC50 (A375 melanoma cells [20]) was > 200 µM.

With `COc1cc(-c2cc(=O)c3c(O)cc(O)c(C4OCC(O)C(O)C4OC4OC(CO)C(OC(C)=O)C(O)C4O)c3o2)ccc1OC(C)=O` (stereo not shown) [Compound 13, 5,7-dihydroxy-3′-methoxy-4′-acetoxyflavone-8-C-arabinoside-2″-O-(4‴-acetoxy)-glucoside] the IC50 [15] was > 200 µM, the IC50 (C32 melanoma cells [16]) was > 200 µM and the IC50 (C32 melanoma cells [17]) was > 200 µM. The IC50 [18] was > 200 µM, the IC50 (A375 melanoma cells [19]) was > 200 µM and the IC50 (A375 melanoma cells [20]) was > 200 µM.

In the case of “kaempferol 3-O-galactoside [Compound 22]”, the IC50 (A375 melanoma cells [1]; read-out: IC50, cytotoxic activity, MTT test, A375, 24 h) is reported as > 200 µM, the IC50 (A375 melanoma cells [1]; [23]) is reported as > 200 µM and the IC50 (A375 melanoma cells [1]; read-out: IC50, cytotoxic activity, MTT test, A375, 72 h) is reported as > 200 µM. For the same molecule, the IC50 ([21]; 24 h) was > 200 µM, the IC50 ([21]; 48 h) was > 200 µM and the IC50 ([21]; 72 h) was > 200 µM. For the same molecule, the IC50 (C32 melanoma cells [3]; C32, 24 h) was > 200 µM, the IC50 (C32 melanoma cells [3]; C32, 48 h) was > 200 µM and the IC50 (C32 melanoma cells [3]; C32, 72 h) was > 200 µM. For the same molecule, the IC50 ([22]; 24 h) was > 200 µM, the IC50 ([22]; 48 h) was > 200 µM and the IC50 ([22]; 72 h) was > 200 µM. For the same molecule, the IC50 (A375 melanoma cells [12]; A375, 24 h) was > 200 µM, the IC50 (A375 melanoma cells [12]; A375, 48 h) was > 200 µM and the IC50 (A375 melanoma cells [12]; A375, 72 h) was > 200 µM. For the same molecule, the IC50 (C32 melanoma cells [14]; [24]) was > 200 µM, the IC50 (C32 melanoma cells [14]; [25]) was > 200 µM and the IC50 (C32 melanoma cells [14]; [26]) was > 200 µM.
